Like-named read-outs stand apart in the source and are kept apart here.

Series [1] relates to human vascular endothelial cells. As to the kind of experiment: Nitric oxide production by cultured human vascular endothelial cells (FIG. 23). It is filed as cell-based. Conditions: cells stimulated with acetylcholine; nitrate/nitrites by Seiver's system. As to the method: These agents were administered to cultured human vascular endothelial cells stimulated with acetylcholine. Measurement of nitric oxide was through a Seiver's system of nitrate/nitrites.

Series [2] in a line: Intravenous citrulline dose escalation pharmacokinetics in children undergoing congenital cardiac surgery. It is filed as in vivo, human. Here is the method:
The initial goal was to test the safety and pharmacokinetics of three doses of intravenous citrulline in children undergoing surgical repair of specific congenital heart defects. […] An adverse drop in mean arterial pressure was defined as a greater than a twenty percent decrease from baseline. The baseline postoperative mean arterial blood pressure was calculated as the average of mean arterial blood pressure measurements collected every 5 minutes for the 30 minutes immediately preceding the administration of the postoperative dose or infusion.
The original doses selected were 200, 400, and 600 mg/kg based on data from previous animal studies. The original study design was a 4 arm study using the 3 doses and a placebo control.
After pharmacokinetic modeling, the study design was changed to a bolus dose of 150 mg/kg given in the OR on cardiopulmonary bypass followed 4 hours later by a continuous infusion of 9 mg/kg/hour for 48 hours. Another 9 patients were enrolled. The mean plasma levels of both citrulline and arginine in study patients (+IV citrulline) compared to patients in the observational cohort (−IV citrulline) are depicted in FIGS. 11A-B.
The dose of citrulline was given in the operating room immediately after cannulation and initiation of cardiopulmonary bypass. The overall goal was to achieve a sustained citrulline level of 100 μmol/L or more up to four hours after the initial dose. The four hour time point was selected to allow for the surgical procedure to be completed and the patient to return to the Intensive Care Unit (ICU) postoperatively before further dosing.

As for `NC(=O)NCCCC(N)C(=O)O` (centres unmarked) [Citrulline, 2-amino-5-(carbamoylamino)pentanoic acid], the “production of nitric oxide” value in series [1] is “increases the production of NO”. The peak citrulline level result in series [2] (50 mg/kg IV, Patients 6 and 8) was “approximately 220 μmol/L”; in series [2] (100 mg/kg IV, Patients 9 & 10) it was 375 µmol/L; in series [2] (150 mg/kg IV, Patient 13-16) it was 660 µmol/L. The molecule also had a four hour levels in series [2] (150 mg/kg IV bolus) of 100 µmol/L. Besides, the plasma levels achieved entry in series [2] (IV doses 200, 400, and 600 mg/kg) was “very high”. Besides, the “sustained citrulline level suggested by pharmacokinetic modeling” value in series [2] (bolus 150 mg/kg then 4 hours later continuous infusion 9 mg/kg/hr) is “approximately 100 μmol/L”. The half-life – broadly, the time needed for the level to fall by half in the phase considered – in series [2] (human, plasma, iv, IV bolus doses in children on CPB) is about 1.42 h. For the same molecule, the concentration at 4 hour turned out to be 40 µM in series [2] (human, plasma, 50 mg/kg IV, Patients 6 and 8, read-out: 4 hour trough level); 50 µM in series [2] (human, plasma, 100 mg/kg IV, Patients 9 & 10, read-out: 4 hour trough); 80 µM in series [2] (human, plasma, 150 mg/kg IV, Patient 13-16, read-out: 4 hour trough).

The values are drawn from patent US10265286B2, “Sequelae of cardiopulmonary bypass-induced pulmonary injury” (Vanderbilt University, priority 2016, dated 2019).
